Measurements: ChEMBL document CHEMBL4879554, “Data for DCP probe GNE-2256” (2021)

Legend:
[1] = molecular target: Bone morphogenetic protein receptor type-1A (Homo sapiens) (UniProt P36894); assay: BMPR1A Kinase panel; settings: Compound concentration 1.0 uM
[2] = molecular target: MAP kinase-activated protein kinase 3 (Homo sapiens) (UniProt Q16644); assay: MAPKAPK3 Kinase panel; settings: Compound concentration 1.0 uM
[3] = molecular target: Death-associated protein kinase 1 (Homo sapiens) (UniProt P53355); assay: DAPK1 Kinase panel; settings: Compound concentration 1.0 uM
[4] = molecular target: Histamine H3 receptor (Homo sapiens) (UniProt Q9Y5N1); settings: Compound concentration 10.0 uM
[5] = molecular target: Serine/threonine-protein kinase Nek9 (Homo sapiens) (UniProt Q8TD19); assay: NEK9 Kinase panel; settings: Compound concentration 1.0 uM
[6] = molecular target: Tyrosine-protein kinase JAK3 (Homo sapiens) (UniProt P52333); assay: JAK3 Kinase panel; settings: Compound concentration 1.0 uM
[7] = molecular target: Receptor-type tyrosine-protein kinase FLT3 (Homo sapiens) (UniProt P36888); assay: Flt3 Kinase panel; settings: Compound concentration 1.0 uM
[8] = molecular target: Death-associated protein kinase 3 (Homo sapiens) (UniProt O43293); assay: ZIPK Kinase panel; settings: Compound concentration 1.0 uM
[9] = molecular target: Serine/threonine-protein kinase Sgk1 (Homo sapiens) (UniProt O00141); assay: SGK1 Kinase panel; settings: Compound concentration 1.0 uM
[10] = molecular target: MAP kinase-activated protein kinase 5 (Homo sapiens) (UniProt Q8IW41); assay: PRAK Kinase panel; settings: Compound concentration 1.0 uM
Homo sapiens = species: Homo sapiens; assay: PKA Kinase panel; settings: Compound concentration 1.0 uM
[11] = molecular target: Fibroblast growth factor receptor 1 (Homo sapiens) (UniProt P11362); assay: FGFR1 Kinase panel; settings: Compound concentration 1.0 uM
[12] = molecular target: 5-hydroxytryptamine receptor 1B (Homo sapiens) (UniProt P28222); settings: Compound concentration 10.0 uM
[13] = molecular target: Sodium-dependent dopamine transporter (Homo sapiens) (UniProt Q01959); settings: Compound concentration 10.0 uM
[14] = molecular target: Tyrosine-protein kinase Mer (Homo sapiens) (UniProt Q12866); assay: Mer Kinase panel; settings: Compound concentration 1.0 uM
[15] = molecular target: Calcium/calmodulin-dependent protein kinase type 1 (Homo sapiens) (UniProt Q14012); assay: CaMKI Kinase panel; settings: Compound concentration 1.0 uM
[16] = molecular target: 5-hydroxytryptamine receptor 5A (Homo sapiens) (UniProt P47898); settings: Compound concentration 10.0 uM
[17] = molecular target: Calcium/calmodulin-dependent protein kinase type II subunit alpha (Homo sapiens) (UniProt Q9UQM7); assay: CamKII_alpha Kinase panel; settings: Compound concentration 1.0 uM
[18] = molecular target: MAP kinase-interacting serine/threonine-protein kinase 2 (Homo sapiens) (UniProt Q9HBH9); assay: MKNK2 Kinase panel; settings: Compound concentration 1.0 uM
[19] = molecular target: Interleukin-1 receptor-associated kinase 4 (Homo sapiens) (UniProt Q9NWZ3); assay: IRAK4 Kinase panel; settings: Compound concentration 1.0 uM
[20] = molecular target: Mitogen-activated protein kinase kinase kinase 8 (Homo sapiens) (UniProt P41279); assay: Cot Kinase panel; settings: Compound concentration 1.0 uM
[21] = molecular target: Protein kinase C delta type (Homo sapiens) (UniProt Q05655); assay: PKC_delta Kinase panel; settings: Compound concentration 1.0 uM
[22] = molecular target: 5-hydroxytryptamine receptor 2B (Homo sapiens, UniProt P41595); assay: GPCRScan assay: inhibition of 5-HT2B; parameters: radioligand conc. used [nm] 1.0 – 2.0, parental cells stable HEK
[23] = molecular target: Glycogen synthase kinase-3 alpha (Homo sapiens) (UniProt P49840); assay: GSK3_alpha Kinase panel; settings: Compound concentration 1.0 uM
[24] = molecular target: Casein kinase I isoform alpha (Homo sapiens) (UniProt P48729); assay: CK1_alpha1 Kinase panel; settings: Compound concentration 1.0 uM
[25] = molecular target: Proto-oncogene tyrosine-protein kinase Src (Homo sapiens) (UniProt P12931); assay: Src Kinase panel; settings: Compound concentration 1.0 uM
[26] = molecular target: Serine/threonine-protein kinase Sgk3 (Homo sapiens) (UniProt Q96BR1); assay: SGK3 Kinase panel; settings: Compound concentration 1.0 uM
[27] = molecular target: SRSF protein kinase 3 (Homo sapiens) (UniProt Q9UPE1); assay: MSSK1 Kinase panel; settings: Compound concentration 1.0 uM
[28] = molecular target: Alpha-2C adrenergic receptor (Homo sapiens) (UniProt P18825); settings: Compound concentration 10.0 uM
Misshapen-like kinase 1 = Misshapen-like kinase 1 (Homo sapiens, UniProt Q8N4C8); assay: Mink1 Kinase panel
[29] = molecular target: Serine/threonine-protein kinase MARK1 (Homo sapiens) (UniProt Q9P0L2); assay: MARK1 Kinase panel; settings: Compound concentration 1.0 uM
[30] = molecular target: Beta-1 adrenergic receptor (Homo sapiens) (UniProt P08588); settings: Compound concentration 10.0 uM
[31] = molecular target: Serine/threonine-protein kinase MRCK alpha (Homo sapiens) (UniProt Q5VT25); assay: MRCK_alpha Kinase panel; settings: Compound concentration 1.0 uM
[32] = molecular target: Serine/threonine-protein kinase SIK2 (Homo sapiens) (UniProt Q9H0K1); assay: SIK2 Kinase panel; settings: Compound concentration 1.0 uM
[33] = molecular target: Mitogen-activated protein kinase 9 (Homo sapiens) (UniProt P45984); assay: JNK2 Kinase panel; settings: Compound concentration 1.0 uM
[34] = molecular target: CDK9/cyclin T1 (Homo sapiens) (UniProt O60563+P50750); assay: CDK9/cyclinT1 Kinase panel; format: protein-complex assay; settings: Compound concentration 1.0 uM
[35] = molecular target: Casein kinase I isoform gamma-2 (Homo sapiens) (UniProt P78368); assay: CK1_gamma2 Kinase panel; settings: Compound concentration 1.0 uM
[36] = molecular target: D(2) dopamine receptor (Homo sapiens) (UniProt P14416); settings: Compound concentration 10.0 uM
[37] = molecular target: D(1B) dopamine receptor (Homo sapiens) (UniProt P21918); settings: Compound concentration 10.0 uM
[38] = molecular target: G protein-coupled receptor kinase 6 (Homo sapiens) (UniProt P43250); assay: GRK6 Kinase panel; settings: Compound concentration 1.0 uM
[39] = molecular target: Ribosomal protein S6 kinase alpha-1 (Homo sapiens) (UniProt Q15418); assay: RSK1 Kinase panel; settings: Compound concentration 1.0 uM
[40] = molecular target: Non-receptor tyrosine-protein kinase TYK2 (Homo sapiens) (UniProt P29597); assay: TYK2 Kinase panel; settings: Compound concentration 1.0 uM
[41] = molecular target: Serine/threonine-protein kinase PLK3 (Homo sapiens) (UniProt Q9H4B4); assay: PLK3 Kinase panel; settings: Compound concentration 1.0 uM
[42] = molecular target: Mitogen-activated protein kinase 1 (Homo sapiens) (UniProt P28482); assay: ERK2 Kinase panel; settings: Compound concentration 1.0 uM
[43] = molecular target: Cyclin-dependent kinase 1/cyclin B (Homo sapiens) (UniProt P06493+P14635+Q8WWL7+O95067); assay: CDK1/cyclinB Kinase panel; format: protein-complex assay; settings: Compound concentration 1.0 uM
[44] = tested on: Epidermal growth factor receptor (Homo sapiens), P00533 [L858R,T790M]; assay: EGFR(T790M,L8 58R) Kinase panel; settings: Compound concentration 1.0 uM
[45] = molecular target: Proto-oncogene tyrosine-protein kinase receptor Ret (Homo sapiens) (UniProt P07949); assay: Ret Kinase panel; settings: Compound concentration 1.0 uM
[46] = molecular target: Serine/threonine-protein kinase Chk1 (Homo sapiens) (UniProt O14757); assay: CHK1 Kinase panel; settings: Compound concentration 1.0 uM
[47] = molecular target: Mitogen-activated protein kinase 12 (Homo sapiens) (UniProt P53778); assay: p38_gamma Kinase panel; settings: Compound concentration 1.0 uM
[48] = molecular target: DNA-dependent protein kinase catalytic subunit (Homo sapiens) (UniProt P78527); assay: DNA_PK Kinase panel; settings: Compound concentration 1.0 uM
[49] = tested on: RAF proto-oncogene serine/threonine-protein kinase (Homo sapiens), P04049 [Y340D,Y341D]; assay: RAF1(Y340D,Y3\n41D) Kinase panel; settings: Compound concentration 1.0 uM
[50] = molecular target: Dual specificity tyrosine-phosphorylation-regulated kinase 1A (Homo sapiens) (UniProt Q13627); assay: DYRK1A Kinase panel; settings: Compound concentration 1.0 uM
[51] = molecular target: Serine/threonine-protein kinase PAK 3 (Homo sapiens) (UniProt O75914); assay: PAK3 Kinase panel; settings: Compound concentration 1.0 uM

Chain of D(2) dopamine receptor (Homo sapiens) (P14416 whole entry): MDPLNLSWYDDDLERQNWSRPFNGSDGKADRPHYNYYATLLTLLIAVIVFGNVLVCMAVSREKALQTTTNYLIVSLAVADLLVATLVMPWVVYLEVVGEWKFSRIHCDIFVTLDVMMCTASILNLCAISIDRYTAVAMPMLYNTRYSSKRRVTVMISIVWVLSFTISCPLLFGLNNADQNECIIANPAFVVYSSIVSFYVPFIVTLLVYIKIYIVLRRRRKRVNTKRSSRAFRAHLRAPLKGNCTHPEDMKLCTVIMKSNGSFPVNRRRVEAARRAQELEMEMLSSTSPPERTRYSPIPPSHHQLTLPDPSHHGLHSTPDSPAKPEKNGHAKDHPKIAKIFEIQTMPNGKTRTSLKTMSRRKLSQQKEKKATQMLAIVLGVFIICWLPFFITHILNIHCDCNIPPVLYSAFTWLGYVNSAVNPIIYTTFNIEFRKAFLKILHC
Chain of Receptor-type tyrosine-protein kinase FLT3 (Homo sapiens) (P36888 whole entry): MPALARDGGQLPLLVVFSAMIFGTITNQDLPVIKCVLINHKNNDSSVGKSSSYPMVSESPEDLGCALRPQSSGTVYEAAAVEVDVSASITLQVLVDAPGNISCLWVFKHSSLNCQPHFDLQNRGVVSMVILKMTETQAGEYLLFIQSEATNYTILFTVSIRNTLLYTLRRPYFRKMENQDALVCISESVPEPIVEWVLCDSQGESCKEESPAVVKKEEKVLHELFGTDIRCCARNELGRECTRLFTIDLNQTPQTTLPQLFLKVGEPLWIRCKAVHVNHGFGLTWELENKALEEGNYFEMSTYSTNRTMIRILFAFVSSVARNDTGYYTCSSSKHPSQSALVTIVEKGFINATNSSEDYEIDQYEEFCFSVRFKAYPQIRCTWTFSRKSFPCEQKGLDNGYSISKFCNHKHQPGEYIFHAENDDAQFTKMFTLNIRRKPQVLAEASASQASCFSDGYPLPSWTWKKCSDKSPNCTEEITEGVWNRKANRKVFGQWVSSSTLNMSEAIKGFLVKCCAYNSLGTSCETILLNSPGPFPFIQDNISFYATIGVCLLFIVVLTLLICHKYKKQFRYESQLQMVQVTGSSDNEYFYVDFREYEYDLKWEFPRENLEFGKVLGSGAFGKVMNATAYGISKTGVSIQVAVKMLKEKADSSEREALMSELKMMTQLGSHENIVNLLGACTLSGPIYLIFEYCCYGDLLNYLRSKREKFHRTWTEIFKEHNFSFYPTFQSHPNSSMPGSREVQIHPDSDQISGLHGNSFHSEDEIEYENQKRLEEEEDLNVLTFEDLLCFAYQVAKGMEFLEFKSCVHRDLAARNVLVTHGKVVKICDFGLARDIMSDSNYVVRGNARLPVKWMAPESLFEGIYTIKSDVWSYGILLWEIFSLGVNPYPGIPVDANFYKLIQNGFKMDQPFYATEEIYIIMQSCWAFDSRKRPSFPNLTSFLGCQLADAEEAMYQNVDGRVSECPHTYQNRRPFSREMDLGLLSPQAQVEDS
Chain of G protein-coupled receptor kinase 6 (Homo sapiens) (P43250 whole entry, looked up): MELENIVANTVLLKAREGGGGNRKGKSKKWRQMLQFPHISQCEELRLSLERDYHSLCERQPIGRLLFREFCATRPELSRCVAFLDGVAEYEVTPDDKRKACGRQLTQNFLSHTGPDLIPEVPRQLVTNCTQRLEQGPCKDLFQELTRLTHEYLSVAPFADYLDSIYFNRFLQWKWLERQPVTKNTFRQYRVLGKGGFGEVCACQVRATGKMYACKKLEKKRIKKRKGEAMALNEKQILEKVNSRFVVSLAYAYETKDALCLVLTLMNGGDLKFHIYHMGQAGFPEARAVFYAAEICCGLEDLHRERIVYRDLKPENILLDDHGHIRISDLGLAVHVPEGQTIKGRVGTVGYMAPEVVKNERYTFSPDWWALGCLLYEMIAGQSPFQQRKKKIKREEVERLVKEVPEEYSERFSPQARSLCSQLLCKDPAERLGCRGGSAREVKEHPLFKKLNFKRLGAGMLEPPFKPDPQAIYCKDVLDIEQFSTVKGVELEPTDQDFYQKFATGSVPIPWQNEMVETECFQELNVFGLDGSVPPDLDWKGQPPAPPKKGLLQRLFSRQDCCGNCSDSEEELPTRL
Chain of Serine/threonine-protein kinase MRCK alpha (Homo sapiens) (Q5VT25 whole entry): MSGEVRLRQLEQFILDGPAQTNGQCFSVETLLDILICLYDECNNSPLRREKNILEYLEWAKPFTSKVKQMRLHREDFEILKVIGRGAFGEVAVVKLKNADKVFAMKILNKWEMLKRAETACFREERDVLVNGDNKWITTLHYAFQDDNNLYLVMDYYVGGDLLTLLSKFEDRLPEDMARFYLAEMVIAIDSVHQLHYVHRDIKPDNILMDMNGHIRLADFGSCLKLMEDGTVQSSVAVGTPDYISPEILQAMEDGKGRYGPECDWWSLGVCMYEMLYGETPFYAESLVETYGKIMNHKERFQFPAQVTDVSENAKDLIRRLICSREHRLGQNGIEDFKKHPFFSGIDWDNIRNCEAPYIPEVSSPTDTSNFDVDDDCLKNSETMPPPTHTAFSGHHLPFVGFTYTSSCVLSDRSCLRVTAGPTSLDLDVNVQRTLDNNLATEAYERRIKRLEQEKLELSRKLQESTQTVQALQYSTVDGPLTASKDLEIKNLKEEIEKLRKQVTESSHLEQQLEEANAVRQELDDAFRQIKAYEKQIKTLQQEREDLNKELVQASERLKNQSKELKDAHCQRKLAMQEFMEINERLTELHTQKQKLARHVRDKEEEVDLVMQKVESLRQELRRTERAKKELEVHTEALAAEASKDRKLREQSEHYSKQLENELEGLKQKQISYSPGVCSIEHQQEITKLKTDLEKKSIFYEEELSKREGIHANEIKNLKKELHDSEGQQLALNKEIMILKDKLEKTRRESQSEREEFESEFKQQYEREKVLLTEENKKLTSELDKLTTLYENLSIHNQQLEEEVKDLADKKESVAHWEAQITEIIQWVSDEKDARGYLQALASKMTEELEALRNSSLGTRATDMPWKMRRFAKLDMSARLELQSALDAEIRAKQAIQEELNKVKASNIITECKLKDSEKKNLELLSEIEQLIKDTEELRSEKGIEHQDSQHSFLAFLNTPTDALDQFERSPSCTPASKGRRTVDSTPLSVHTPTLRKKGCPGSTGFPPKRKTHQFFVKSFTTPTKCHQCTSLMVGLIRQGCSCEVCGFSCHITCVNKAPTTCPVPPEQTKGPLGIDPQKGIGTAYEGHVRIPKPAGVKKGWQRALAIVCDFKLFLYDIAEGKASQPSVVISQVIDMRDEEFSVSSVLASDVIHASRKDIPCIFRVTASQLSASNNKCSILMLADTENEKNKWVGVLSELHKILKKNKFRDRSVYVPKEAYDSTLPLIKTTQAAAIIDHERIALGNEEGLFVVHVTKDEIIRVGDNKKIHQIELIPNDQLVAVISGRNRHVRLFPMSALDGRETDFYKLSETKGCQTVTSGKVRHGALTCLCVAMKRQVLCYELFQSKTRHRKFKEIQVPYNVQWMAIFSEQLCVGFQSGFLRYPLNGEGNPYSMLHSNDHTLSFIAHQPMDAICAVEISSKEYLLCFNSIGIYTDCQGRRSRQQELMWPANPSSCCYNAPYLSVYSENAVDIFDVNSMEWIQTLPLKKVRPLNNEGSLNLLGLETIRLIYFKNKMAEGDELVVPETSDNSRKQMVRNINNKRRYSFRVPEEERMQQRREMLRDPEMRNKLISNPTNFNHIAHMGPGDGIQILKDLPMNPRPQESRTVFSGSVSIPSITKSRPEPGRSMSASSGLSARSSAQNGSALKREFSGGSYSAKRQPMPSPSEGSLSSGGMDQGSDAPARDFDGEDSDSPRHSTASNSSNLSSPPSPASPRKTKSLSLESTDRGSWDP
Chain of 5-hydroxytryptamine receptor 5A (Homo sapiens) (P47898 whole entry): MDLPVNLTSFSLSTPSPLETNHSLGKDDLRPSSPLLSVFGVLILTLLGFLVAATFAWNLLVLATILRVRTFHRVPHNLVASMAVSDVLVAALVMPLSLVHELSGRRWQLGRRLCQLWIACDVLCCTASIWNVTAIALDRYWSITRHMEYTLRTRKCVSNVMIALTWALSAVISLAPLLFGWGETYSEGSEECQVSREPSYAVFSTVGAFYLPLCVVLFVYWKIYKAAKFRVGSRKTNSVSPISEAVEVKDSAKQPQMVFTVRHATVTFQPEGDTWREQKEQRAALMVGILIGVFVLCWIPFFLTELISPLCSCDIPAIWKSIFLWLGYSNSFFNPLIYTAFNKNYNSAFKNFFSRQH
Chain of RAF proto-oncogene serine/threonine-protein kinase (Homo sapiens), P04049 [Y340D,Y341D] (P04049 whole entry Y340D/Y341D): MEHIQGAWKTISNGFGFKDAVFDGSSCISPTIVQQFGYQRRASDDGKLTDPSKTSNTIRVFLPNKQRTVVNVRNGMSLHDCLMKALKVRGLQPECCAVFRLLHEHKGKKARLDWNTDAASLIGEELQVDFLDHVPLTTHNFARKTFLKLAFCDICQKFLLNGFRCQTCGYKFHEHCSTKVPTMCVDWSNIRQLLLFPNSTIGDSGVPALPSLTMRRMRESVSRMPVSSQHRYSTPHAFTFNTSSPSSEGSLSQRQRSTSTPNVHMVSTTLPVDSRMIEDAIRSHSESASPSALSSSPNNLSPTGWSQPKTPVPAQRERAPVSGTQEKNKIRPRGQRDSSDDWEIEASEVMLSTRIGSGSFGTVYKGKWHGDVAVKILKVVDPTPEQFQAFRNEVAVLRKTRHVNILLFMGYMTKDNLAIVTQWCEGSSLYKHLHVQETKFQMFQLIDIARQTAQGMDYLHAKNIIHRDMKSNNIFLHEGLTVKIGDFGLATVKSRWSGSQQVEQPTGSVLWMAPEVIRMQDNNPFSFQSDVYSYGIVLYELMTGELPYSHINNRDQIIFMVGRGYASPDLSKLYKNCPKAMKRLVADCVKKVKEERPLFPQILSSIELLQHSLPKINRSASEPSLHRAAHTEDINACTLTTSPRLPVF

`CC(C)(O)[C@H](F)CN1Cc2cc(NC(=O)c3cnn4cccnc34)c(N3CCOCC3)cc2C1=O` was tested, and the inhibition [1] was 7%, the inhibition [2] was 6% and the inhibition [3] was 5.5%. It also gave an inhibition [4] of -5.14%, an inhibition [5] of -2.5% and an inhibition [6] of 28%. The inhibition [7] was 90.8%, the inhibition [8] was 3.5% and the inhibition [9] was 4%. The inhibition [10] was -3.5%, the inhibition (Homo sapiens) was 5% and the inhibition [11] was 5.5%. It also gave an inhibition [12] of 33%, an inhibition [13] of 20% and an inhibition [14] of 28%. The inhibition [15] was -5.5%, the inhibition [16] was -0.55% and the inhibition [17] was 2.5%. The inhibition [18] was 6.5%, the inhibition [19] was 101% and the inhibition [20] was 3%. For the same compound, the inhibition [21] was 12.5%, the Ki [22] was 509 nM and the inhibition [23] was 15.5%. It also gave an inhibition [24] of -0.5%, an inhibition [25] of 23.8% and an inhibition [26] of -0.5%. It also gave an inhibition [27] of 2.5%, an inhibition [28] of -8.65% and an IC50 (Misshapen-like kinase 1) of 879 nM. For the same compound, the inhibition (Misshapen-like kinase 1; Compound concentration 1.0 uM) was 80.5%, the inhibition [29] was -1% and the inhibition [30] was 1.93%. It also gave an inhibition [31] of 1.5%, an inhibition [32] of 12% and an inhibition [33] of 2.5%. The inhibition [34] was 2.5%, the inhibition [35] was 5% and the inhibition [36] was 3.24%. For the same compound, the inhibition [37] was -6.56%, the inhibition [38] was 3.5% and the inhibition [39] was 7.5%. The inhibition [40] was 53.5%, the inhibition [41] was -3% and the inhibition [42] was 0.5%. It also gave an inhibition [43] of 2.5%, an inhibition [44] of 13% and an inhibition [45] of 31.5%. It also gave an inhibition [46] of 3%, an inhibition [47] of 0.5% and an inhibition [48] of 9%. It also gave an inhibition [49] of -1.5%, an inhibition [50] of 2% and an inhibition [51] of 2%.
